Test results reported in patent US20250195521A1 (Revolution Medicines, Inc., priority 2020, published 2025).
Where two headings read alike, the source gives them in different places.

Tests used:
[1] = system: Capan-1 cells (K-Ras G12V); assay: CellTiter-Glo cell viability, Capan-1; format: cell-based, human; details: Homo sapiens, CAPAN-1, 120 h, read-out: Capan-1 Cell Viability IC50
Outline: (§1)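 Compounds were dispensed directly onto seeded cells and incubated until day 5, then plates were equilibrated at room temperature for about 30 min before CellTiter-Glo luminescence readout. Signals were normalized as (sample/average DMSO)×100 and fitted with a four-parameter logistic model.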

KRAS Q61H = KRAS Q61H (Homo sapiens (Human), UniProt P01116+P62937, Q61H); assay: Ras-Raf disruption/FRET/MOA assay (BRAF RBD, Cyclophilin A); format: biochemical
Outline: (§2)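 Measured: compound-facilitated Cyclophilin A:Ras complex blocking RAF RBD binding. Conditions: 12.5 nM Ras-GMPPNP, 50 nM BRAF RBD, 25 μM CypA, 3 h plus 1.5 h detection. Output: IC50 from TR-FRET ratio.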

NRAS WT = NRAS WT (Homo sapiens (Human), UniProt P01111+P62937); assay: as above; format: biochemical
Outline: (§3)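 First, 25 μM Cyclophilin A, 12.5 nM His6-Ras-GMPPNP and 50 nM GST-BRAF RBD are mixed with diluted compound at pH 7.3. Next, 3 h at 25° C. Then 10 nM anti-His Eu-W1024 plus 50 nM anti-GST allophycocyanin for 1.5 h before TR-FRET reading.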

KRAS G13C = KRAS G13C (Homo sapiens (Human), UniProt P01116+P62937, G13C); assay: as above; format: biochemical; details: read-out: KRAS G13C FRET IC50
Outline: as §2

KRAS G12S = KRAS G12S (Homo sapiens (Human), UniProt P01116+P62937, G12S); assay: as above; format: biochemical; details: read-out: KRAS G12S FRET IC50
Outline: as §2

KRAS G13D = KRAS G13D (Homo sapiens (Human), UniProt P01116+P62937, G13D); assay: as above; format: biochemical; details: read-out: KRAS G13D FRET data IC50
Outline: as §2

KRAS G12C = KRAS G12C (Homo sapiens (Human), UniProt P01116+P62937, G12C); assay: as above; format: biochemical; details: read-out: KRAS G12C FRET IC50
Outline: as §2

NRAS Q61R = NRAS Q61R (Homo sapiens (Human), UniProt P01111+P62937, Q61R); assay: as above; format: biochemical
Outline: as §3

KRAS G12D = KRAS G12D (Homo sapiens (Human), UniProt P01116+P62937, G12D); assay: as above; format: biochemical; details: read-out: KRAS G12D FRET IC50
Outline: as §2

KRAS WT = KRAS WT (Homo sapiens (Human), UniProt P01116+P62937); assay: as above; format: biochemical; details: read-out: KRAS WT FRET data IC50
Outline: as §2

KRAS G12V = KRAS G12V (Homo sapiens (Human), UniProt P01116+P62937, G12V); assay: as above; format: biochemical; details: read-out: KRAS G12V FRET IC50
Outline: as §2

NRAS G12C = NRAS G12C (Homo sapiens (Human), UniProt P01111+P62937, G12C); assay: as above; format: biochemical; details: read-out: NRAS G12C FRET data IC50
Outline: as §3

[2] = system: NCI-H358 cells (K-Ras G12C); assay: CellTiter-Glo cell viability, NCI-H358; format: cell-based, human; details: Homo sapiens, NCI-H358, 120 h, read-out: H358 Cell Viability IC50
Outline: as §1

[3] = system: K-Ras G12C (NCI-H358 cells); assay: Potency assay: pERK in NCI-H358 cells; format: cell-based, human; details: Homo sapiens, read-out: pERK EC50 (H358 KRAS G12C)
Outline: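 Cells plated the day before were exposed for 4 h at 37° C, 5% CO2 to a 10-point, 3-fold DMSO dilution series (10 mM top stock), in duplicate. Phospho-ERK was read by AlphaLISA SureFire Ultra or by In-Cell Western with DRAQ5 DNA stain, and IC50 came from a 4-parameter sigmoidal fit.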

Chain of NRAS WT (P01111 whole entry): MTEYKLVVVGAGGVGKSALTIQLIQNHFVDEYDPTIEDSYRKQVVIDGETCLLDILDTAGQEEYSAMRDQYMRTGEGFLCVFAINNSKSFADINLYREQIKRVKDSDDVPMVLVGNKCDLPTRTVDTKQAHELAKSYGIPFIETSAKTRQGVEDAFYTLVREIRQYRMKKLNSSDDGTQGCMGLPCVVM
Chain of NRAS WT (P62937 whole entry): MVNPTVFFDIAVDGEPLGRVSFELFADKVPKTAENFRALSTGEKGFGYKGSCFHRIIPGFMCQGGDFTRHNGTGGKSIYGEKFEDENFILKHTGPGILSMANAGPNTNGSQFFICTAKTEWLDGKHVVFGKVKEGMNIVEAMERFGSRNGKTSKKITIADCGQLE
Chain of KRAS Q61H (P01116 other isoform, or with tags, fused parts or gaps Q61H): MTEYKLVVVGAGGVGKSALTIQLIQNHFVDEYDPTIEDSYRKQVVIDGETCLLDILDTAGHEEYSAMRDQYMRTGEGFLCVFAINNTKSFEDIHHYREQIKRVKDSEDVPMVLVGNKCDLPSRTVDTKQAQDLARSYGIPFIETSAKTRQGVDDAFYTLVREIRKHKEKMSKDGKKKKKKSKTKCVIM
Chain of KRAS Q61H (P62937 whole entry): as the sequence (P62937 whole entry) above
Chain of KRAS G13D (P01116 other isoform, or with tags, fused parts or gaps G13D): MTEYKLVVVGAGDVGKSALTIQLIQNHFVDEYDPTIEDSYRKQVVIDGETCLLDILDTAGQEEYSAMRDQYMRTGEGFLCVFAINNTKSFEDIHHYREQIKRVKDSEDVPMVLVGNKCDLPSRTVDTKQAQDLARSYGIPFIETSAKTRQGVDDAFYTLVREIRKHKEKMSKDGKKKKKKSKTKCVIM
Chain of KRAS G13D (P62937 whole entry): as the sequence (P62937 whole entry) above
Chain of KRAS G12C (P01116-2 other isoform, or with tags, fused parts or gaps G12C): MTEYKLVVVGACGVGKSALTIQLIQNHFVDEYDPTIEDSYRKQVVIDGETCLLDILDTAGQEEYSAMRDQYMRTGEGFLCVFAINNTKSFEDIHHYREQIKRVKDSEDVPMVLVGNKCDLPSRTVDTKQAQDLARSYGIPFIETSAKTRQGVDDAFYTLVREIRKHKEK
Chain of KRAS G12C (P62937 whole entry): as the sequence (P62937 whole entry) above
Chain of KRAS G12V (P01116 other isoform, or with tags, fused parts or gaps G12V): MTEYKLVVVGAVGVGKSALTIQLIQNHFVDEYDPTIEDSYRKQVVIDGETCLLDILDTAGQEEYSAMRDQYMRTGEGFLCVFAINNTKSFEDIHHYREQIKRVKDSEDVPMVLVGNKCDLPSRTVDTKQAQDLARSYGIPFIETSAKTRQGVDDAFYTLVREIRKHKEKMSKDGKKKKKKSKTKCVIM
Chain of KRAS G12V (P62937 whole entry): as the sequence (P62937 whole entry) above
Chain of KRAS WT (P01116 other isoform, or with tags, fused parts or gaps): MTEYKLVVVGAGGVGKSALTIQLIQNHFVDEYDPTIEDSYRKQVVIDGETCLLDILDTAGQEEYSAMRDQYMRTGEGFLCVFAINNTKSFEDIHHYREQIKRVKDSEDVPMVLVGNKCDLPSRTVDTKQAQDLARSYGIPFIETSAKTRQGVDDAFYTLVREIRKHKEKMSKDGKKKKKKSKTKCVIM
Chain of KRAS WT (P62937 whole entry): as the sequence (P62937 whole entry) above
Chain of KRAS G12D (P01116 other isoform, or with tags, fused parts or gaps G12D): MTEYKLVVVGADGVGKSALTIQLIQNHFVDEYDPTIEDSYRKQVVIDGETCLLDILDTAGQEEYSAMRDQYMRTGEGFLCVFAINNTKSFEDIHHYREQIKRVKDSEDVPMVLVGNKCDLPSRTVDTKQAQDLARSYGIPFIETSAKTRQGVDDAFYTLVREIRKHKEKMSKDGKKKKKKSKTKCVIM
Chain of KRAS G12D (P62937 whole entry): as the sequence (P62937 whole entry) above
Chain of NRAS Q61R (P01111 whole entry Q61R): as the sequence (P01111 whole entry) above, with Q61R counted along it
Chain of NRAS Q61R (P62937 whole entry): as the sequence (P62937 whole entry) above
Chain of NRAS G12C (P01111 whole entry G12C): as the sequence (P01111 whole entry) above, with G12C counted along it
Chain of NRAS G12C (P62937 whole entry): as the sequence (P62937 whole entry) above
Chain of KRAS G13C (P01116 other isoform, or with tags, fused parts or gaps G13C): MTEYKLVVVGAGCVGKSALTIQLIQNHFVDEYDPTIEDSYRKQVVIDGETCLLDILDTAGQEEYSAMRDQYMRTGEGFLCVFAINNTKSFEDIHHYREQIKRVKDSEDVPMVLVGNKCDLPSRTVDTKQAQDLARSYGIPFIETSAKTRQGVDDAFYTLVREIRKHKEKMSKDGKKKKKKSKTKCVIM
Chain of KRAS G13C (P62937 whole entry): as the sequence (P62937 whole entry) above
Chain of KRAS G12S (P01116 other isoform, or with tags, fused parts or gaps G12S): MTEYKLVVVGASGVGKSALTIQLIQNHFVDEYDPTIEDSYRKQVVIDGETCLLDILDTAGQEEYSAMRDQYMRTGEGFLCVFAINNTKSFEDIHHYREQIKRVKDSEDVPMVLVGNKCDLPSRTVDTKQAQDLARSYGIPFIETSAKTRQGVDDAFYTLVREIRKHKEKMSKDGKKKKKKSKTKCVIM
Chain of KRAS G12S (P62937 whole entry): as the sequence (P62937 whole entry) above

Compound | IC50 ([1]; K-Ras G12V, 5-day treatment) | IC50 (KRAS Q61H) | IC50 (NRAS WT) | IC50 (KRAS G13C) | IC50 (KRAS G12S) | IC50 (KRAS G13D) | IC50 (KRAS G12C) | IC50 (NRAS Q61R) | IC50 (KRAS G12D) | IC50 (KRAS WT) | IC50 (KRAS G12V) | IC50 (NRAS G12C) | IC50 ([2]; K-Ras G12C, 5-day treatment) | EC50 ([3]; NCI-H358 cells, 4 hours) | IC50 [1] | EC50 ([3]; NCI-H358, 4 h) | IC50 [2]
CCn1c(-c2cccnc2[C@H](C)OC)c2c3cc(ccc31)-c1csc(n1)C[C@H](NC(=O)[C@H](C(C)C)N(C)C(=O)N1CC3(CC(NCCOC)C3)C1)C(=O)N1CCC[C@H](N1)C(=O)OCC(C)(C)C2 [Compound A512] | 10 to 100 nM | 100 to 1000 nM | 100 to 1000 nM | 100 to 1000 nM | 100 to 1000 nM | 100 to 1000 nM | 100 to 1000 nM | 100 to 1000 nM | 1000 to 10000 nM | 100 to 1000 nM | 100 to 1000 nM | 100 to 1000 nM | 10 to 100 nM | – | – | – | –
CCn1c(-c2cccnc2[C@H](C)OC)c2c3cc(ccc31)-c1csc(n1)C[C@H](NC(=O)[C@H](C(C)C)N(C)C(=O)N1CC([C@H](CO)OC)C1)C(=O)N1CCC[C@H](N1)C(=O)OCC(C)(C)C2 [Compound A515] | 10 to 100 nM | 10 to 100 nM | 100 to 1000 nM | 100 to 1000 nM | 100 to 1000 nM | 100 to 1000 nM | 10 to 100 nM | 100 to 1000 nM | 100 to 1000 nM | 100 to 1000 nM | 100 to 1000 nM | 10 to 100 nM | – | < 5000 nM | – | – | –
CCn1c(-c2cccnc2[C@H](C)OC)c2c3cc(ccc31)-c1csc(n1)C[C@H](NC(=O)[C@H](C(C)C)N(C)C(=O)N1CC(C(=O)N3CCOCC3)C1)C(=O)N1CCC[C@H](N1)C(=O)OCC(C)(C)C2 [Compound A543] | 10 to 100 nM | 10 to 100 nM | 100 to 1000 nM | 100 to 1000 nM | 100 to 1000 nM | 100 to 1000 nM | 10 to 100 nM | 100 to 1000 nM | 100 to 1000 nM | 100 to 1000 nM | 100 to 1000 nM | 10 to 100 nM | – | – | – | – | –
CCn1c(-c2cccnc2[C@H](C)OC)c2c3cc(ccc31)-c1csc(n1)C[C@H](NC(=O)[C@H](C(C)C)N(C)C(=O)N1CC(S(=O)(=O)N(C)C)C1)C(=O)N1CCC[C@H](N1)C(=O)OCC(C)(C)C2 [Compound A551] | – | 10 to 100 nM | 100 to 1000 nM | 100 to 1000 nM | 100 to 1000 nM | 100 to 1000 nM | 10 to 100 nM | 100 to 1000 nM | 100 to 1000 nM | 100 to 1000 nM | 100 to 1000 nM | 10 to 100 nM | – | – | 10 to 100 nM | < 5000 nM | –
CCn1c(-c2cccnc2[C@H](C)OC)c2c3cc(ccc31)-c1csc(n1)C[C@H](NC(=O)[C@H](C(C)C)N(C)C(=O)N(C)CCc1ccncc1)C(=O)N1CCC[C@H](N1)C(=O)OCC(C)(C)C2 [Compound A557] | 100 to 1000 nM | 10 to 100 nM | 100 to 1000 nM | 100 to 1000 nM | 100 to 1000 nM | 100 to 1000 nM | 10 to 100 nM | 100 to 1000 nM | 100 to 1000 nM | 100 to 1000 nM | 100 to 1000 nM | 10 to 100 nM | 10 to 100 nM | – | – | – | –
CCn1c(-c2cccnc2[C@H](C)OC)c2c3cc(ccc31)-c1csc(n1)C[C@H](NC(=O)[C@H](C(C)C)N(C)C(=O)N1CCC[C@H](N(C)C)C1)C(=O)N1CCC[C@H](N1)C(=O)OCC(C)(C)C2 [Compound A569] | – | 10 to 100 nM | 10 to 100 nM | 100 to 1000 nM | 100 to 1000 nM | 100 to 1000 nM | 10 to 100 nM | 100 to 1000 nM | 100 to 1000 nM | 100 to 1000 nM | 100 to 1000 nM | 10 to 100 nM | – | – | 10 to 100 nM | – | 10 to 100 nM
CCn1c(-c2cccnc2[C@H](C)OC)c2c3cc(ccc31)-c1csc(n1)C[C@H](NC(=O)[C@H](C(C)C)N(C)C(=O)N1CC(CN(C)C)C1)C(=O)N1CCC[C@H](N1)C(=O)OCC(C)(C)C2 [Compound A576] | 10 to 100 nM | 100 to 1000 nM | 100 to 1000 nM | 100 to 1000 nM | 100 to 1000 nM | 100 to 1000 nM | 10 to 100 nM | 100 to 1000 nM | 100 to 1000 nM | 100 to 1000 nM | 100 to 1000 nM | 10 to 100 nM | 10 to 100 nM | – | – | – | –
